The numbers were not newly measured in patent US8512972B2, “Crystal of hypoxia inducible factor 1 alpha prolyl hydroxylase” (Akebia Therapeutics, Inc., priority 2006, dated 2013), which cites them from elsewhere.

One data set has as its system HIF protein. To be noted: administered to rats.
The subject of data set [1] is HIF protein in HT1080, PC12W and 3T3L1 cells. Conditions: HT1080, PC12W and 3T3L1 cells in culture.
Data set [2] deals with GLUT1, heme oxygenase and nitric oxide synthase. To be noted: neonatal rat cardiomyocytes.

With `N[C@@H](Cn1ccc(=O)c(O)c1)C(=O)O` [L-mimosine], the “HIF protein expression in the kidney” value in the data set on HIF protein is reported as “induced HIF protein expression”. Further, the “induction of HIF protein” value in data set [1] is given as “induce HIF protein”.
Turning to `COC(=O)CNC(=O)C(=O)OC` [dimethyloxalylglycine], the “expression of GLUT1, heme oxygenase and nitric oxide synthase” value in data set [2] is “induced the expression”.
Consider `CCOC(=O)c1ccc(O)c(O)c1` [ethyl-3,4 dihydroxybenzoate], for which the “induction of HIF protein” value in data set [1] is listed as “induce HIF protein”. The “expression of GLUT1, heme oxygenase and nitric oxide synthase” value in data set [2] is on record as “induced the expression”.
